Literature values as cited in patent publication US20220315503A1, “METHODS FOR PRODUCING TREATED MANURE” (COMMONWEALTH SCIENTIFIC AND INDUSTRIAL RESEARCH ORGANISATION, priority 2019, published 2022).
Like-named read-outs stand apart in the source and are kept apart here.

Columns and labels:
enteric CH4 emission [1] = settings: sheep
enteric CH4 emission [2] = settings: dairy cattle
enteric CH4 emission [3] = settings: beef cattle; administered in animal feed
[4] = initial concentrations 132 to 177 μg/L; 1.5 hours packed-bed detention time
[5] = test system: production of CH4 in rumen fluid

Row | Structure (SMILES) | reduction in CH4 emissions (enteric CH4 emission [1]) [%] | overall CH4 yield of spiked feces (CH4 yield of feces; feces spiked with 200 mg kg^−1 dry matter) | downstream effect on CH4 emissions of the feces (CH4 yield of feces; inhibitor included in animal diets) | reduction in CH4 emissions (enteric CH4 emission [2]) | reduction of CH4 emission (enteric CH4 emission [3]) [%] | reduction (degradation) under anaerobic conditions [4] [%] | production of CH4 compared to control in rumen fluid ([5]; concentration of 1 μM) | production of CH4 compared to control in rumen fluid ([5]; concentrations ≥5 μM)
1 | O=[N+]([O-])OCCCO [3NOP, 3-nitrooxypropanol] | 24 | no significant difference | no significant downstream effect | up to 60% | 59 |  |  | 
2 | BrC(Br)Br [bromoform, tribromomethane] |  |  |  |  |  | > 99 | inhibit the production of CH4 | inhibit the production of CH4
3 | ClC(Br)Br [dibromochloromethane] |  |  |  |  |  |  | inhibit the production of CH4 | inhibit the production of CH4
